{"source": "paper PMC6707612", "about": "“Cyclic-di-GMP binds to histidine kinase RavS to control RavS-RavR phosphotransfer and regulates the bacterial lifestyle transition between virulence and swimming” (PLoS Pathogens, 2019)", "assay_in_all_cases": "microscale thermophoresis (MST) binding", "settings_in_all_cases": "20 nM fluorescein-labelled nucleotide, read-out: dissociation constant (Kd)", "key": {"RavA": {"molecular_target": "RavA (Xanthomonas campestris pv. campestris, UniProt Q8P9A8)", "sequence (Q8P9A8 entry or part of it)": "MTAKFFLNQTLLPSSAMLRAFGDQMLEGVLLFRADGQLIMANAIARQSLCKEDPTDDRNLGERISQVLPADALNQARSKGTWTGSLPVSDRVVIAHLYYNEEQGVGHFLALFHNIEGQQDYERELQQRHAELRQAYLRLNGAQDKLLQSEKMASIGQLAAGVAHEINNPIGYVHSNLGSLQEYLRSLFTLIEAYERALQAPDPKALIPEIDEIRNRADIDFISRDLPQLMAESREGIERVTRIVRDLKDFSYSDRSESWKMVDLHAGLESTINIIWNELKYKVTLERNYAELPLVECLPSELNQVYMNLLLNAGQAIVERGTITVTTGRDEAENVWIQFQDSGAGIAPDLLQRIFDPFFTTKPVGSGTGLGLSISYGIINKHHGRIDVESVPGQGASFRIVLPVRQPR", "experimental": "(§1) The interaction between c-di-GMP nucleotides and various proteins was measured by using MST with a fluorescein-labelled c-di-GMP (2′-Fluo-AHC-c-di-GMP, abbreviated as fl-c-di-GMP; 2′-Fluo-AHC-c-di-AMP, fl-c-di-AMP; 2′-Fluo-AHC-cGMP, fl-cGMP; Biolog, Germany). These chemicals contain carboxyfluorescein that has excitation and emission wavelengths of 497 nm and 520 nm, respectively, which can be detected directly by a MST instrument. The experiments were performed on a Monolith NT.115 device using standard treated capillaries (NanoTemper Technologies, Germany). The concentration of the particular protein varied from 0.036 to 150 μM with a 2-fold gradient and the concentration of fl-c-di-GMP was constant at 20 nM. Fluorescence intensity due to thermophoresis was recorded using the blue channel optics of the instrument (λex = 470 ± 15 nm, λem = 520 ± 10 nm) during a 30 s period of infrared laser heating at 80% of the maximum laser power, followed by a 5 s cooling period. Measurements were performed in buffer containing 20 mM HEPES, pH 7.5, 150 mM NaCl, 2 mM MgCl2, 2 mM DTT and 0.05% Tween 20. […]\n(§2) Supplementary file ppat.1007952.s007.pdf: S7 Fig c-di-GMP specifically binds to RavS to enhance the RavS-RavR phosphotransfer. […] The interactions of RavS^ΔN, RavA, VgrS and RavR^ΔEAL with fl-c-di-GMP were measured by microscale thermophoresis (MST). Twenty nanomolar fluorescein-labelled nucleotides and increasing concentrations of proteins were co-incubated and potential interactions were measured by MST. The dissociation constant (Kd) was determined to estimate the binding affinity. […]\n(§3) (b) RavSΔN specifically interacts with fl-c-di-GMP. The interactions of RavSΔN, RavA, VgrS and RavRΔEAL with fl-c-di-GMP were measured by microscale thermophoresis (MST). Twenty nanomolar fluorescein-labelled nucleotide and increasing concentrations of proteins were co-incubated and potential interactions were measured by MST.\n(§4) The dissociation constant (Kd) was determined to estimate the binding affinity. […]"}, "VgrS": {"molecular_target": "VgrS (Xanthomonas campestris pv. campestris, UniProt Q8P666)", "sequence (Q8P666 entry or part of it)": "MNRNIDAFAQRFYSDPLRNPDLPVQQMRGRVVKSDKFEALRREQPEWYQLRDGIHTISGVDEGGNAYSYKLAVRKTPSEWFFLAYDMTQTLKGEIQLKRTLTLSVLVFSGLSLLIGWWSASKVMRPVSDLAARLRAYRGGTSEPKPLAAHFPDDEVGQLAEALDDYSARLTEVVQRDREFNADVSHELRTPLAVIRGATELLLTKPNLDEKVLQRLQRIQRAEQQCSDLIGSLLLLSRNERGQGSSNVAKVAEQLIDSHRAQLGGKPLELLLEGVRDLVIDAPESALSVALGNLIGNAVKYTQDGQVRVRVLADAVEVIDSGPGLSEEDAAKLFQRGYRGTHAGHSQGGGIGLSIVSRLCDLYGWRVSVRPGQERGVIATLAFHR", "experimental": "as §1, §2, §3, §4"}, "RavS^ΔN": {"molecular_target": "T1, RavS^ΔN (Xanthomonas campestris pv. campestris, UniProt Q8P9A6)", "T1 sequence (Q8P9A6 352-697)": "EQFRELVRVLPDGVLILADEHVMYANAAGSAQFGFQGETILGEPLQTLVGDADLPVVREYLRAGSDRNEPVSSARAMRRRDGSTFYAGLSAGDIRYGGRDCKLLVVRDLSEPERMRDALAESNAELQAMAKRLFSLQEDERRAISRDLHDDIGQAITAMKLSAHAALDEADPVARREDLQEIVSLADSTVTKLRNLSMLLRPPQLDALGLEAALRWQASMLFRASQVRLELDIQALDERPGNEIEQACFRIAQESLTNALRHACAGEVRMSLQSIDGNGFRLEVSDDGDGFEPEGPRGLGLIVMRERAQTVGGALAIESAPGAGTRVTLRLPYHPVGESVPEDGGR", "experimental": "as §1, §2, §3, §4"}}, "note": "Several values for one entry are separate records, joined by “and”; a condition that tells them apart may be missing. Equal values may be shown once."}
{"smiles": "Nc1nc2c(ncn2[C@@H]2O[C@@H]3COP(=O)(O)O[C@H]4[C@@H](OC(=O)NCCCCCCNC(=O)c5ccc6c(c5)C(=O)OC65c6ccc(O)cc6Oc6cc(O)ccc65)[C@H](n5cnc6c(=O)[nH]c(N)nc65)O[C@@H]4COP(=O)(O)O[C@H]3[C@H]2O)c(=O)[nH]1", "note": "[fl-c-di-GMP, 2′-Fluo-AHC-c-di-GMP]", "values": [{"measurement": "Kd", "setting": "RavA", "result": "116 µM and > 80 µM"}, {"measurement": "Kd", "setting": "VgrS", "result": "88.1 µM and > 80 µM"}, {"measurement": "Kd", "setting": "RavS^ΔN", "result": "5.62 ± 0.74", "unit": "µM"}]}
